Patent US8314108B2, “5-(5-(2-(3-aminopropoxy)-6-methoxyphenyl)-1H-pyrazol-3-ylamino)pyrazine-2-carbonitrile, pharmaceutically acceptable salts thereof, or solvate of salts” (Eli Lilly and Company, priority 2008, dated 2012)
Structures can show the parent of a compound that is named as a salt.

Tests used:
[1] = tested on: Calu-6 lung tumor xenograft; experiment: Human Tumor Xenograft Model, Calu-6 lung; type: in vivo, nude mice; settings: Calu-6 xenograft
Procedure: (§1) The ability of Chk1 inhibitors to effect tumor killing can be determined in vivo using the Calu-6 lung and HT-29 colon tumor xenograft efficacy models. Calu-6 lung cancer cells (ATCC) are cultured in growth media (MEM w/Earle's salts (Invitrogen) with L-glutamine (Gibco™) supplemented with 10% (v/v) heat inactivated FBS (Gibco™), 1×MEM non-essential amino acids (Gibco™), 1× sodium pyruvate (Gibco™)) and HT-29 colon cancer cells (ATCC) are cultured in growth media, (McCoy's 5A medium (Gibco™) supplemented with 10% FBS (Gibco™)) and expanded. Cells are harvested and washed twice with phosphate buffered saline and 5×10^6 cells (HT-29) or 1×10^6 cells (Calu-6) in growth media (without serum) are mixed with equal volume of BD Matrigel™ matrix (BD Bioscience, Franklin, N.J.), then injected subcutaneously into the flank of nude mice (CD-1 nu/nu, from Charles River Labs, Wilmington, Mass.). At about day 16 after implant (150-200 mm^3), gemcitabine is formulated fresh in saline daily and administered to animals by intraperitoneal route at 60 mg/kg dose. […] Tumor response is determined by tumor volume measurement performed twice a week during the course of treatment. Tumor growth inhibition (TGI) is calculated as the percent reduction in mean tumor size of a compound treated group from the mean tumor size of the vehicle-treated control group.

HT-29 cells = experiment: ECtfs (Two-Fold Sensitization) Assay, 3H-thymidine incorporation; type: cell-based
Procedure: The capacity for continued tumor cell proliferation after DNA damage can be analyzed by determining the ability of cells to replicate their DNA. […] Following a recovery period, cells are assayed for the ability to incorporate radioactive thymidine into DNA during S phase. The ECtfs parameter is a measure of the concentration of a Chk1 inhibitor necessary to reduce by half the GI90 concentration of gemcitabine, measured in this assay in the absence of Chk1 inhibition. […] These cells are plated at 1.3×10^3 per well on Corning Costar 96-well tissue culture plates. After plating the cells, the tissue culture plates are held at room temperature for 45 minutes, before returning to 37° C. Plates are incubated for 24 hours prior to gemcitabine addition. Before gemcitabine addition, medium is removed from all wells and replaced with 150 μL per well of fresh RPMI medium. Gemcitabine stocks at 10 mM are prepared in phosphate-buffered saline. Gemcitabine dilutions were prepared at 4× concentrations in RPMI medium and added to wells at 50 μL per well. The highest final concentration of gemcitabine used is 80 μM and dilutions proceed by four-fold steps. Two hours later, gemcitabine-containing medium is removed from the wells and replaced with 150 μL per well of fresh RPMI medium. […] The volume of addition is 50 μL. Compound dilutions proceed by two-fold steps, starting at 5000 nM. […] 20 μL of this solution is added to each well, yielding 1 μCi/well of ^3H-thymidine. Cells are labeled for twenty-two hours. The medium containing ^3H-thymidine is thoroughly removed from the wells. The plates are then frozen at −20° C., for several hours. To harvest the DNA containing incorporated ^3H-thymidine, plates are thawed for several minutes, and then 120 μL per well of 0.1 N NaOH is added to each well. Each plate is then incubated at 37° C., with slow mixing on a rotator, for 10 minutes. […] The wells of the tissue culture plate on which cells had been labeled are washed with water 5×. The Unifilter plate membranes are washed with an additional 4.5 mL per well (3×1.0 mL and finally a 1.5 mL wash). The Unifilter plates are then dried at 37° C. for at least 6 hours. The bottom of each filter plate was sealed with a Backseal adhesive sheet (PerkinElmer), and the 50 μL/well of MicroScint-20 (Perkin Elmer) is added. Each plate is then sealed with a Topseal clear adhesive sheet (PerkinElmer). Plates are counted on a Topcount scintillation counter (PerkinElmer), at 1 minute per well. ^3H-thymidine counts per minute (cpm) are exported into Prism (GraphPad) for analysis and plotting. […] For plotting the data in Prism, the gemcitabine concentrations are transformed to log values, and dose-response curves are fit by non-linear regression. Neither top nor bottom fits are constrained.

[2] = tested on: HT-29 colon tumor xenograft; experiment: Human Tumor Xenograft Model, HT-29 colon; type: in vivo, nude mice; settings: HT-29 xenograft
Procedure: as §1

[3] = tested on: Thirty solid tumor cell lines; experiment: Monolayer Proliferation and Cytotoxicity Assay (modified propidium iodide assay, Oncotest); type: cell-based; settings: 96 h; majority of thirty solid tumor cell lines, 4 days of treatment; read-out: EC50 (growth inhibition of tumor cell lines)
Description: One measure of potency of a Chk1 inhibitor is its ability to inhibit the proliferation of cancer cells in culture due to uncontrolled replication origin activation. (Conti et al. Cell Cycle 6: 2760-2767, 2007) Determination of Chk1 inhibitor antiproliferative activity in cell lines derived from a broad range of tumor types is indicative of which tumor types may be clinically responsive to chemotherapy with Chk1 inhibitors. The following described cellular proliferation assay is run at Oncotest, GmbH in Germany. Thirty solid tumor cell lines are derived from 13 different tumor histotypes, each represented by 1 to 6 different cell lines (Oncotest, GmbH). […] Briefly, adherent cells are harvested from exponential phase cultures by trypsinization, counted and plated in 96 well flat-bottomed microtiter plates at a cell density depending on the cell line (4.000-20.000 cells/well). […] Finally, PI fluorescence is measured using the Cytofluor 4000 microplate reader (excitation λ=530 nm, emission λ=620 nm) to determine the total viable cell number. Growth inhibition is expressed as Test/Control×100 (% T/C) values. Based on the T/C values, relative IC50 values are determined using non-linear regression (log [conc. of inhibitor] versus response (% T/C)).

Calu-6 lung xenograft = experiment: Single Agent Efficacy Dosing, Calu-6 lung xenograft; type: in vivo, nude mice; settings: 15 mg/kg subcutaneously, BID×5 rest 2 days, ×3 cycles
Procedure: The ability of Chk1 inhibitors to effect tumor killing can be determined in vivo using the Calu-6 lung xenograft efficacy model. Calu-6 lung cancer cells (ATCC) are cultured as described above. Cells are harvested and washed twice with phosphate buffered saline and 1×10^6 cells (Calu-6) in growth media (without serum) are mixed with equal volume of BD Matrigel™ matrix (BD Bioscience, Franklin, N.J.), then injected subcutaneously into the flank of nude mice (CD-1 nu/nu, from Charles River Labs, Wilmington, Mass.).

[4] = stated jointly for both HT-29 and Calu-6 models

With `COc1cccc(OCCCN)c1-c1cc(Nc2cnc(C#N)cn2)n[nH]1` [Example 2, 5-(5-(2-(3-Aminopropoxy)-6-methoxyphenyl)-1H-pyrazol-3-ylamino)pyrazine-2-carbonitrile dihydrogen chloride salt] the anti-tumor activity ([1]; dosed alone and in combination with gemcitabine 60 mg/kg, intravenous, Q3Dx4) was “excellent dose dependent anti-tumor activity”, the “increase in tumor growth inhibition over gemcitabine alone” value [1, 4] was “six-fold” and the “decrease of the EC50 of gemcitabine” value (HT-29 cells; 3 nM of the compound of Example 2, HT29 colon carcinoma cells) was 7 fold. For the same compound, the ECtfs value (HT-29 cells; concentration of Chk1 inhibitor necessary to reduce by half the GI90 concentration of gemcitabine, HT-29 cells) was 0.3 nM, the anti-tumor activity ([2]; dosed alone and in combination with gemcitabine 60 mg/kg, intraperitoneal, Q3Dx4) was “excellent dose dependent anti-tumor activity” and the “increase in tumor growth inhibition over gemcitabine alone” value [2, 4] was “six-fold”. The EC50 [3] was less than 20 nM, the “growth inhibition compared with the gemcitabine plus compound combination schedule” value (Calu-6 lung xenograft) was “superior growth inhibition” and the tumor regression (Calu-6 lung xenograft) was “Complete tumor regression is rapid and durable”.

With `Nc1ccn([C@@H]2O[C@H](CO)[C@@H](O)C2(F)F)c(=O)n1` [gemcitabine, reference compound] the EC50 (HT-29 cells; Homo sapiens, HT-29, gemcitabine alone, HT29 colon carcinoma cells) was 37 nM and the “percentage of proliferation inhibition” value (HT-29 cells; gemcitabine alone, HT29 cells) was 52%.
